Assay results: patent US5045543A, “5-amino or substituted amino 1,2,3-triazoles useful as antimetastatic agents” (Merck & Co., Inc., priority 1989, dated 1991)
≈ marks a conversion by molar mass, not a printed value.

Key:
[1] = system: PAPp26 Murine Keratinocytes; conditions: proliferation assay
Procedure: In these experiments Murine keratinocyte transformed cell line PAPp26 was cultured in Dulbecco's modified Eagle's medium with 10% fetal calf serum at 37° C., 5% CO2. Each well of a 96 well plate was seeded with 2000 cells in 200 μl of each drug dilution in duplicate. A plate was stopped and fixed for each time point, stained with Giemsa and then read in a Titertek plate reader at 650 nm, and the absorbances were calibrated with known cell numbers on control plates.

[2] = system: pig skin epidermal basal cells (keratinocytes); assay: UV induced hyperproliferation in pig skin in vivo (topical antiproliferative activity)
Procedure: The topical antiproliferative activities, along with in vitro antiproliferative activities against human keratinocytes and fibroblasts, provide the biological data in support of the claimed utility:
In one experiment, a 20 kg pig was sedated and multiple areas of clipped skin were exposed to uv radiation sufficient to provoke a moderate hyperproliferative response within several days of exposure. On days 0, 1, 2 and 3 replicate irradiated sites were treated topically with Compound A in several vehicles or solvents. Topical preparations included a 2% drug in Gel #1, a combination of isopropyl myristate:Crodamol:ethanol, 1:1:2, or DMSO. The hyperproliferative response of the skin to uv was assessed on day 4 by injecting ^3 H-thymidine intradermally, and, 1 hour later, removing the sites by punch biopsy and processing the samples for autoradiography. Such autoradiographs indicate the number of epidermal cells in S phase synthesizing DNA and this is a common tool used by dermatologists to assess inhibition of proliferation in vivo. A single injection of methotrexate, 4 hours prior to ^3 H-thymidine injection was used as a positive control for inhibition of DNA synthesis. A labelling index, L.I., which is the percent of the total number of epidermal basal cells (keratinocytes) counted showing label incorporation. Four days after exposure to uv, the L.I. of pig skin increased from 7.6% to 20.8% (normal human skin ca. 2%, psoriatic lesions ca. 25%, for comparison).

psoriasis = conditions: cited from earlier work; for side effects in psoriasis treatment: in vivo; for efficacy in psoriasis: mycophenolic acid given orally; for clearing of psoriatic lesions: used experimentally

SMILES: NC(=O)c1nnn(Cc2cc(Cl)c(C(=O)c3ccc(Cl)cc3)c(Cl)c2)c1N [(B)]
- ED50 PAPp26 [1]: 2 µg/mL (≈ 4.71 µM)

SMILES: NC(=O)c1nnn(Cc2ccc(Sc3ccc(Cl)cc3)c(Cl)c2)c1N [(C)]
- ED50 PAPp26 [1]: 1 to 2 µg/mL (≈ 2.54 to 5.07 µM)

SMILES: NC(=O)c1nnn(Cc2ccc(Sc3ccc(Cl)cc3)c(C(F)(F)F)c2)c1N [(D)]
- ED50 PAPp26 [1]: 1 to 2 µg/mL (≈ 2.34 to 4.67 µM)

SMILES: Cc1cc(Cn2nnc(C(N)=O)c2N)cc(Cl)c1C(=O)c1ccc(C(F)(F)F)cc1 [(E)]
- ED50 PAPp26 [1]: 2 µg/mL (≈ 4.57 µM)

SMILES: N#Cc1ccc(C(=O)c2c(Cl)cc(Cn3nnc(C(N)=O)c3N)cc2Cl)cc1 [(F)]
- ED50 PAPp26 [1]: 2 µg/mL (≈ 4.82 µM)

SMILES: NC(=O)c1nnn(Cc2cc(Cl)c(C(=O)c3ccc(Cl)cc3)c(Br)c2)c1N [(G)]
- ED50 PAPp26 [1]: 2 µg/mL (≈ 4.26 µM)

SMILES: NC(=O)c1nnn(Cc2cc(Cl)c(Oc3ccc(Br)cc3)c(Cl)c2)c1N [(H)]
- ED50 PAPp26 [1]: 1 to 2 µg/mL (≈ 2.19 to 4.38 µM)

SMILES: NC(=O)c1nnn(Cc2cc(Cl)c(C(=O)c3ccc(Br)cc3)c(Cl)c2)c1N [(J)]
- ED50 PAPp26 [1]: 1 to 2 µg/mL (≈ 2.13 to 4.26 µM)

SMILES: NC(=O)c1nnn(Cc2cc(Cl)c(Oc3ccc([N+](=O)[O-])cc3)c(Cl)c2)c1N [(K)]
- ED50 PAPp26 [1]: 2 µg/mL (≈ 4.73 µM)

SMILES: Cc1cc(Cn2nnc(C(N)=O)c2N)cc(Cl)c1Oc1ccc(Cl)cc1 [(L)]
- ED50 PAPp26 [1]: 2 µg/mL (≈ 5.1 µM)

SMILES: CN(Cc1cnc2nc(N)nc(N)c2n1)c1ccc(C(=O)N[C@@H](CCC(=O)O)C(=O)O)cc1 [Methotrexate, methotrexate, reference compound]
- UV induced hyperproliferation, % Inhibition ([2]; i.d. injection): 93%
- Labelled Cells ([2]; i.d., single injection 4 hours prior to 3H-thymidine, of 1175 basal cells counted): 100
- LI (labelling index) ([2]; i.d., uv exposed Gel #1 control 20.8, normal 7.6): 8.5%
- side effects in psoriasis treatment (psoriasis): unacceptable side effects due to toxicity
- efficacy in psoriasis (psoriasis): effective in treating the disease

SMILES: COc1c(C)c2c(c(O)c1C/C=C(\C)CCC(=O)O)C(=O)OC2 [Mycophenolic acid]
- side effects in psoriasis treatment (psoriasis): unacceptable side effects
- efficacy in psoriasis (psoriasis): controls psoriasis by causing remission when given orally
- clearing of psoriatic lesions (psoriasis): success in clearing lesions

SMILES: O=C(O)C[C@H](NC(=O)CP(=O)(O)O)C(=O)O [N-phosphonacetyl-L-aspartate]
- side effects in psoriasis treatment (psoriasis): unacceptable side effects due to toxicity
- efficacy in psoriasis (psoriasis): effective in treating the disease

SMILES: O=c1[nH]cc(F)c(=O)[nH]1 [fluorouracil]
- side effects in psoriasis treatment (psoriasis): unacceptable side effects due to toxicity
- efficacy in psoriasis (psoriasis): effective in treating the disease

SMILES: Nc1nc2nc[nH]c2c(=S)[nH]1 [thioguanine]
- side effects in psoriasis treatment (psoriasis): unacceptable side effects due to toxicity
- efficacy in psoriasis (psoriasis): effective in treating the disease
- clearing of psoriatic lesions (psoriasis): success in clearing lesions
